# Assay results from PMC8443589, “Modelling human liver fibrosis in the context of non-alcoholic steatohepatitis using a microphysiological system” (Communications Biology, 2021).
# Legend:
# [1] = system: liver MPS NASH model (PHH, KC and HSC co-cultures, high fat); assay: Cell health in dosed NASH microtissues: tissue density (Hoechst) and albumin production (ELISA); assay type: cell-based, human; settings: for cytotoxicity in NASH microtissues: QD for 10 days
# Method: Following 10 days of compound treatment (Supp. Fig. 6a), NASH microtissues were assessed for the production of inflammatory and fibrotic biomarkers (Fig. 3a), the expression of pro-fibrotic genes (Fig. 3b) and the expression of collagen-1 and alpha SMA (Fig. 3c, d). […] Crucially using the developed quantitative imaging approach, both OCA and ELF abrogated α-SMA expression in a concentration-dependent manner by up to 50% and collagen-1 deposition was reduced by up to 35% (Fig. 3d).
# Soluble biomarkers in cell culture medium from the MPS were analysed by enzyme-linked immunosorbent assay (ELISA); IL-6 was measured by Human IL-6 DuoSet ELISA (R&D Systems); MCP-1 was measured by Human CCL2/MCP-1 DuoSet ELISA (R&D Systems); pro-collagen 1 was measured by Human Pro-Collagen I α1 DuoSet (R&D Systems); TIMP-1 was measured by Human TIMP-1 Quantikine ELISA Kit (R&D Systems); Fibronectin was measured by Human Fibronectin DuoSet ELISA (R&D Systems); YKL-40 was measured by Human Chitinase 3-like 1 Quantikine ELISA Kit (R&D Systems); Albumin secretion was measured by Human Albumin AssayMax™ ELISA kit (Assay Pro, St. Charles, MO). For all assays, the manufacturer’s protocol was followed.
# Supplemental Figure 6 – Treatment of NASH microtissues in MPS platform with Obeticholic acid and […]
# PHH, KC and HSC co-cultures were cultured in the MPS platform under high fat conditions and dosed with varying concentrations of Obeticholic acid (OCA) and Elafibranor (ELF) dosed QD for 10 days, following an initial 4-day pre-culture phase. A) Overview of the experimental timeline. B) Tissue density of scaffolds from each control was assessed by quantifying Hoechst staining in each FOV (8 FOV per culture) at the end of the study. C) Albumin production between conditions was compared by ELISA at two timepoints. All datapoint are shown and error bars highlight means ± SD.
# (§1) (1 picture or pasted object on this page, not shown here)
# [2] = system: NASH liver microtissues (PHH, KC and HSC co-cultures); assay: Metabolic turnover (T1/2) in NASH liver microtissues in the MPS platform, LC-MS/MS; assay type: in vitro ADME, human; settings: 1 µM, 48 hours
# Method: (§2) Despite many on-going clinical trials, there is still no approved treatment for NASH, but emerging data provide confidence that NASH is a pharmacologically responsive disease. […] First, we set out to determine an optimal dosing strategy for each of the treatments based on an assessment of their physicochemical properties and pharmacokinetic behaviour within the MPS device (Table 1). Non-specific binding to the MPS device was determined after a 72 h incubation with each candidate drug at 1 μM (Table 1). Both candidate drugs were calculated to have less than 0.1% loss as a consequence of non-specific binding to the MPS device (Table 1). […] Because the hepatocytes within the MPS device are metabolically competent, we evaluated the half-life for each candidate drug in NASH microtissues.
# (§3) To determine the metabolic turnover of obeticholic acid and elafibranor in the MPS platform, both compounds were incubated with liver microtissues for 48 h starting at 1 µM and media samples taken at regular intervals (AdooQ Bioscience, UK). The presence of each compound in the cell culture medium was quantified by liquid chromatography-tandem mass spectrometry (LC-MS/MS). Samples were separated using a Waters Acquity UPLC system with an ACE Excel C18-AR column and analysed on a Waters TQ-S Micro mass spectrometer against quantitative standard curves. Both compounds were also assessed for protein binding in HEP-Fat media using rapid equilibrium dialysis (RED) and quantified using the same LC-MS/MS methodology.
# (§4) Supplemental Figure 5 – Obeticholic acid and Elafibranor are metabolised in the NASH MPS model.
# (§5) The metabolism of a) Elafibranor and b) Obeticholic acid and was assessed in PHH, KC and HSC co-cultures grown in the liver MPS platform for 7 days. Following a double media exchange the compounds were incubated with the microtissues at a starting concentration of 1 µM and media samples taken at regular intervals across 48 hours. Media samples were assessed for the concentration of compound by quantitative LC-MS.
# as §1
# [3] = as above; assay type: in vitro ADME, human; settings: human, NASH liver microtissues grown 7 days, medium sampled across 48 h
# Method: as §2, §3, §4, §5, §1
smiles,measurement,setting,value
CC[C@H]1[C@@H](O)[C@@H]2[C@H](CC[C@]3(C)[C@@H]([C@H](C)CCC(=O)O)CC[C@@H]23)[C@@]2(C)CC[C@@H](O)C[C@@H]12 [Obeticholic acid],cytotoxicity in NASH microtissues,[1],does not cause cytotoxicity
same,metabolism in the NASH MPS model,[2],metabolised
same,half-life at 1 µM,[3],12 h
CSc1ccc(C(=O)/C=C/c2cc(C)c(OC(C)(C)C(=O)O)c(C)c2)cc1 [Elafibranor],cytotoxicity in NASH microtissues,[1],does not cause cytotoxicity
same,Albumin production,"[1]; higher doses, 10 days of compound treatment",slightly reduce albumin production
same,metabolism in the NASH MPS model,[2],metabolised
same,half-life at 1 µM,[3],16 h
